Measured values taken from ChEMBL document CHEMBL3804830, “Efficient synthesis of new antiproliferative steroidal hybrids using the molecular hybridization approach” (Eur J Med Chem, 2016).

How the values were obtained:
[1] = Antiproliferative activity against human U87 cells assessed as cell growth inhibition after 72 hrs by MTT assay; assay type: functional, cell-based, U-87MG ATCC; conditions: U-87 MG
SH-SY5Y [2] = assay: Induction of apoptosis in human SH-SY5Y cells assessed as necrotic cells at 1.25 uM after 24 hrs by Annexin V-FITC/propidium iodide staining based flow cytometry (reference value: 2.9%); assay type: functional
SH-SY5Y [3] = assay: Cell cycle arrest in human SH-SY5Y assessed as accumulation at G2/M phase after 24 hrs by propidium iodide staining based flow cytometry; assay type: functional
SH-SY5Y [4] = assay: Cell cycle arrest in human SH-SY5Y assessed as accumulation at G2/M phase at 1.25 uM after 24 hrs by propidium iodide staining based flow cytometry (reference value: 14.53%); assay type: functional
SH-SY5Y [5] = assay: Induction of apoptosis in human SH-SY5Y cells assessed as viable cells at 20 uM after 24 hrs by Annexin V-FITC/propidium iodide staining based flow cytometry (reference value: 88.2%); assay type: functional; conditions: read-out: Activity
SH-SY5Y [6] = assay: Cell cycle arrest in human SH-SY5Y assessed as accumulation at G0/G1 phase at 5 uM after 24 hrs by propidium iodide staining based flow cytometry (reference value: 61.80%); assay type: functional
SH-SY5Y [7] = assay: Induction of apoptosis in human SH-SY5Y cells assessed as early apoptotic cells at 2.5 uM after 24 hrs by Annexin V-FITC/propidium iodide staining based flow cytometry (reference value: 3.3%); assay type: functional
SH-SY5Y [8] = assay: Induction of apoptosis in human SH-SY5Y cells assessed as early apoptotic cells at 1.25 uM after 24 hrs by Annexin V-FITC/propidium iodide staining based flow cytometry (reference value: 3.3%); assay type: functional
SH-SY5Y [9] = assay: Induction of apoptosis in human SH-SY5Y cells assessed as early apoptotic cells at 20 uM after 24 hrs by Annexin V-FITC/propidium iodide staining based flow cytometry (reference value: 3.3%); assay type: functional
SH-SY5Y [10] = assay: Antiproliferative activity against human SH-SY5Y cells assessed as cell growth inhibition after 72 hrs by MTT assay; assay type: functional, cell-based
SH-SY5Y [11] = assay: Induction of apoptosis in human SH-SY5Y cells assessed as necrotic cells at 2.5 uM after 24 hrs by Annexin V-FITC/propidium iodide staining based flow cytometry (reference value: 2.9%); assay type: functional
SH-SY5Y [12] = assay: Cell cycle arrest in human SH-SY5Y assessed as accumulation at S phase at 2.5 uM after 24 hrs by propidium iodide staining based flow cytometry (reference value: 21.34%); assay type: functional
SH-SY5Y [13] = assay: Induction of apoptosis in human SH-SY5Y cells assessed as early apoptotic cells at 5 uM after 24 hrs by Annexin V-FITC/propidium iodide staining based flow cytometry (reference value: 3.3%); assay type: functional
SH-SY5Y [14] = assay: Induction of apoptosis in human SH-SY5Y cells assessed as necrotic cells at 10 uM after 24 hrs by Annexin V-FITC/propidium iodide staining based flow cytometry (reference value: 2.9%); assay type: functional
[15] = Antiproliferative activity against human MGC803 cells assessed as cell growth inhibition after 72 hrs by MTT assay; assay type: functional, cell-based; conditions: MGC-803, 72 h
SH-SY5Y [16] = assay: Induction of apoptosis in human SH-SY5Y cells assessed as viable cells at 10 uM after 24 hrs by Annexin V-FITC/propidium iodide staining based flow cytometry (reference value: 88.2%); assay type: functional; conditions: read-out: Activity
SH-SY5Y [17] = assay: Cell cycle arrest in human SH-SY5Y assessed as accumulation at G2/M phase at 2.5 uM after 24 hrs by propidium iodide staining based flow cytometry (reference value: 14.53%); assay type: functional
SH-SY5Y [18] = assay: Induction of apoptosis in human SH-SY5Y cells assessed as reduction in mitochondrial membrane potential at 5 uM after 24 hrs by JC-1 staining based flow cytometry (reference value: 5.1%); assay type: functional; parameters: scale not given: the % may be the effect or the level left
SH-SY5Y [19] = assay: Induction of apoptosis in human SH-SY5Y cells assessed as necrotic cells at 20 uM after 24 hrs by Annexin V-FITC/propidium iodide staining based flow cytometry (reference value: 2.9%); assay type: functional
SH-SY5Y [20] = assay: Induction of apoptosis in human SH-SY5Y cells assessed as late apoptotic cells at 5 uM after 24 hrs by Annexin V-FITC/propidium iodide staining based flow cytometry (reference value: 5.7%); assay type: functional
SH-SY5Y [21] = assay: Cell cycle arrest in human SH-SY5Y assessed as accumulation at G2/M phase at 5 uM after 24 hrs by propidium iodide staining based flow cytometry (reference value: 14.53%); assay type: functional
MCF7 = assay: cells; conditions: Homo sapiens, MCF7, 72 h
Description: Antiproliferative activity against human MCF7 cells assessed as cell growth inhibition after 72 hrs by MTT assay

SH-SY5Y [22] = assay: Induction of apoptosis in human SH-SY5Y cells assessed as viable cells at 2.5 uM after 24 hrs by Annexin V-FITC/propidium iodide staining based flow cytometry (reference value: 88.2%); assay type: functional; conditions: read-out: Activity
SH-SY5Y [23] = assay: Cell cycle arrest in human SH-SY5Y assessed as accumulation at G0/G1 phase at 1.25 uM after 24 hrs by propidium iodide staining based flow cytometry (reference value: 61.80%); assay type: functional
SH-SY5Y [24] = assay: Induction of apoptosis in human SH-SY5Y cells assessed as reduction in mitochondrial membrane potential after 24 hrs by JC-1 staining based flow cytometry; assay type: functional, cell-based
SH-SY5Y [25] = assay: Induction of apoptosis in human SH-SY5Y cells assessed as early apoptotic cells at 10 uM after 24 hrs by Annexin V-FITC/propidium iodide staining based flow cytometry (reference value: 3.3%); assay type: functional
SH-SY5Y [26] = assay: Induction of apoptosis in human SH-SY5Y cells assessed as necrotic cells at 5 uM after 24 hrs by Annexin V-FITC/propidium iodide staining based flow cytometry (reference value: 2.9%); assay type: functional
SH-SY5Y [27] = assay: Cell cycle arrest in human SH-SY5Y assessed as accumulation at S phase at 5 uM after 24 hrs by propidium iodide staining based flow cytometry (reference value: 21.34%); assay type: functional
SH-SY5Y [28] = assay: Induction of apoptosis in human SH-SY5Y cells after 24 hrs by Annexin V-FITC/propidium iodide staining based flow cytometry; assay type: functional, cell-based
SH-SY5Y [29] = assay: Induction of apoptosis in human SH-SY5Y cells assessed as reduction in mitochondrial membrane potential at 2.5 uM after 24 hrs by JC-1 staining based flow cytometry (reference value: 5.1%); assay type: functional; parameters: scale not given: the % may be the effect or the level left
SH-SY5Y [30] = assay: Induction of apoptosis in human SH-SY5Y cells assessed as reduction in mitochondrial membrane potential at 10 uM after 24 hrs by JC-1 staining based flow cytometry (reference value: 5.1%); assay type: functional; parameters: scale not given: the % may be the effect or the level left
SH-SY5Y [31] = assay: Induction of apoptosis in human SH-SY5Y cells assessed as late apoptotic cells at 10 uM after 24 hrs by Annexin V-FITC/propidium iodide staining based flow cytometry (reference value: 5.7%); assay type: functional
SH-SY5Y [32] = assay: Induction of apoptosis in human SH-SY5Y cells assessed as late apoptotic cells at 2.5 uM after 24 hrs by Annexin V-FITC/propidium iodide staining based flow cytometry (reference value: 5.7%); assay type: functional
SH-SY5Y [33] = assay: Cell cycle arrest in human SH-SY5Y assessed as accumulation at S phase at 1.25 uM after 24 hrs by propidium iodide staining based flow cytometry (reference value: 21.34%); assay type: functional
SH-SY5Y [34] = assay: Induction of apoptosis in human SH-SY5Y cells assessed as late apoptotic cells at 1.25 uM after 24 hrs by Annexin V-FITC/propidium iodide staining based flow cytometry (reference value: 5.7%); assay type: functional
SH-SY5Y [35] = assay: Induction of apoptosis in human SH-SY5Y cells assessed as viable cells at 5 uM after 24 hrs by Annexin V-FITC/propidium iodide staining based flow cytometry (reference value: 88.2%); assay type: functional; conditions: read-out: Activity
SH-SY5Y [36] = assay: Induction of apoptosis in human SH-SY5Y cells assessed as viable cells at 1.25 uM after 24 hrs by Annexin V-FITC/propidium iodide staining based flow cytometry (reference value: 88.2%); assay type: functional; conditions: read-out: Activity
[37] = Antiproliferative activity against human EC109 cells assessed as cell growth inhibition after 72 hrs by MTT assay; assay type: functional, cell-based; conditions: ECa-109, 72 h
SH-SY5Y [38] = assay: Induction of apoptosis in human SH-SY5Y cells assessed as late apoptotic cells at 20 uM after 24 hrs by Annexin V-FITC/propidium iodide staining based flow cytometry (reference value: 5.7%); assay type: functional
[39] = target: Lysine-specific histone demethylase 1A (Homo sapiens, UniProt O60341); assay: Inhibition of recombinant LSD1 (157 to 852 amino acids) (unknown origin) expressed in Escherichia coli BL21(DE) using H3K4me2 substrate
SH-SY5Y [40] = assay: Cell cycle arrest in human SH-SY5Y assessed as accumulation at G0/G1 phase at 2.5 uM after 24 hrs by propidium iodide staining based flow cytometry (reference value: 61.80%); assay type: functional

C[C@]12CC[C@H](OC(=O)Cn3cc(CN4C(=O)C(=O)c5c(Cl)ccc(Cl)c54)nn3)CC1=CC[C@@H]1[C@@H]2CC[C@]2(C)C(=O)CC[C@@H]12
IC50 [1]: 9.57 µM
Activity (SH-SY5Y [2]): 5.3%
Activity (SH-SY5Y [3]): Dose-dependent effect
Activity (SH-SY5Y [4]): 21.31%
viability at 20 µM (SH-SY5Y [5]): 1%
Activity (SH-SY5Y [6]): 52.33%
Activity (SH-SY5Y [7]): 10.6%
Activity (SH-SY5Y [8]): 6.1%
Activity (SH-SY5Y [9]): 32.6%
IC50 (SH-SY5Y [10]): 4.06 µM
Activity (SH-SY5Y [11]): 1.6%
Activity (SH-SY5Y [12]): 23.48%
Activity (SH-SY5Y [13]): 18.9%
Activity (SH-SY5Y [14]): 0.5%
IC50 [15]: 5.95 µM
viability at 10 µM (SH-SY5Y [16]): 0.8%
Activity (SH-SY5Y [17]): 23.88%
Activity (SH-SY5Y [18]): 29.8%
Activity (SH-SY5Y [19]): 0.8%
Activity (SH-SY5Y [20]): 41.4%
Activity (SH-SY5Y [21]): 27.74%
IC50 (MCF7): 32.2 µM
viability at 2.5 µM (SH-SY5Y [22]): 81.4%
Activity (SH-SY5Y [23]): 50.31%
Activity (SH-SY5Y [24]): Dose-dependent effect
Activity (SH-SY5Y [25]): 39%
Activity (SH-SY5Y [26]): 7.4%
Activity (SH-SY5Y [27]): 12.48%
Activity (SH-SY5Y [28]): Dose-dependent effect
Activity (SH-SY5Y [29]): 9%
Activity (SH-SY5Y [30]): 40.1%
Activity (SH-SY5Y [31]): 59.7%
Activity (SH-SY5Y [32]): 6.4%
Activity (SH-SY5Y [33]): 24.78%
Activity (SH-SY5Y [34]): 8.4%
viability at 5 µM (SH-SY5Y [35]): 32.4%
viability at 1.25 µM (SH-SY5Y [36]): 80.3%
IC50 [37]: 20.8 µM
Activity (SH-SY5Y [38]): 65.7%
IC50 [39]: 3.18 µM
Activity (SH-SY5Y [40]): 45.36%
